Experimental findings from US20130253058A1, “SATIETY-INDUCING COMPOSITION” (DSM IP ASSETS B.V., priority 2009, published 2013) are described below.

Read-outs that look alike come from different tables or passages of the source.

The conditions of the series: 3.5 % lipids in yoghurt.

Description: Analogous to example 2 four yoghurts with 3.5% fat (lipids) were followed during transit in the TNO intestinal Model (TIM).
The digestion process in the model was monitored for 5 hours. During the first 3 hours, the gastric content was gradually delivered into the small intestine via the Pyloric valve. At the end of the experiment, approximately 80% of the small intestine content was gradually delivered into the Large intestine via the Ileocecal valve.
Gastric secretions consisted of pepsin from porcine gastric mucosa (EC 3.4.23.1; Sigma-Aldrich Canada) and lipase (EC 3.1.1.3, from Rhizopus oryzae, Amano Pharmaceuticals, Japan), both dissolved in a Gastric Electrolyte Solution (GES: 3.1 g/l NaCl; 1.1 g/l KCl; 0.15 g/l CaCl2; 0.6 g/l NaHCO3). At the beginning of the experiment, a solution of trypsin from porcine pancreas (EC 3.4.21.4; Sigma-Aldrich Canada) was directly introduced into the duodenum. Also, porcine bile extract (supernatant of centrifuged, thawed bile from frozen, fresh collected porcine bile); pancreatic solution (Pancrex V powder; Paines and Byrne, UK), and intestine electrolyte solution (5.0 g/l NaCl; 0.6 g/l KCl; 0.3 g/l CaCl2 at pH 7.0) were delivered in the duodenal compartment.
Prior to testing the yoghurt containers were gently shaken to homogenise contents. At the beginning of each experiment, a 270 g amount of yoghurt was introduced into the gastric (i.e. stomach)—compartment of the TIM. At specific intervals samples were taken from different compartments of the gastro-intestinal tract (Gastric-; jejunum- and ileum lumen). A selection of fresh lumen samples were also directly visually studied by Bright Field microscope (Leica ATC2000 Binocular Microscope), equipped with a phase contrast mode.
The profile of the free fatty acid part of the lipid composition (FFA analysis) was determined by a method developed by the NIZO.
The free fatty acid level for all fatty acids in the ileum as well as the saturated fatty acid (FA) fraction C16:0 and C18:0 and higher in the ileum lumen were determined using FFA method as described above.

`CCCCCCCCCCCCCCCC(=O)O` [Palmitic acid]: the “Total FFA levels in the ileum lumen” value reads like this: (1 h) 171.5 g FFA/kg dry matter; (2 h) 348.3 g FFA/kg dry matter; (3 h) 504.8 g FFA/kg dry matter; (4 h) 461.6 g FFA/kg dry matter; (5 h) 466.2 g FFA/kg dry matter. For the same compound, the “saturated FFA (C16:0 + C18:0 + C20:0) based on total FFA in the ileum lumen” value (from here on “saturated FFA”) (1 h) is given as 91.4 w/w %; the “saturated FFA” value (2 h) is listed as 96.6 w/w %; the “saturated FFA” value (3 h) was determined as 97.8 w/w %; the “saturated FFA” value (4 h) is on record as 97.5 w/w %; the “saturated FFA” value (5 h) was found to be 97.6 w/w %.
